# Assay results as given in patent US20230141603A1, “BENZODIAZEPINE DERIVATIVES AS GABA A GAMMA1 PAM” (Hoffmann-La Roche Inc., priority 2021, published 2023).
# What was measured:
# h-GABAA α1β3γ2 = biological target: T1, h-GABAA α1β3γ2 (Homo sapiens, UniProt P14867+P18507); experiment: Radioligand binding assay, [3H]Flumazenil competition, HEK293F membranes; details: for γ2/γ1 Selectivity Ratio / LogSel: Table 3; for γ2/γ1 Selectivity Ratio: Ki α1β3γ2 (nM)/Ki α2β2γ1 (nM); for LogSel: Log[Ki α1β3γ2 (nM)/Ki α2β2γ1 (nM)]
# T1 construct: expressed in transfected cells; host or cells: HEK293F cells, membranes
# Method: The affinity of compounds at GABAA γ2 subunit-containing receptors was measured by competition for [^3H]Flumazenil (81.1 Ci/mmol; Roche) binding to HEK293F cells expressing human (transiently transfected) receptors of composition α1β3γ2.
# Harvested pellets from HEK293F cells expressing the different GABAA γ2 receptor subtypes were resuspended in Mannitol Buffer pH 7.2-7.4 and processed as described above for the cells expressing the GABAA γ1 subunit-containing receptors.
# Assays were incubated to equilibrium for 1 hour at 4° C. and harvested onto GF/C uni-filters (Packard) by filtration using a Packard harvester and washing with ice-cold wash buffer (50 mM Tris; pH 7.5). After drying, filter-retained radioactivity was detected by liquid scintillation counting. Ki values were calculated using Excel-Fit (Microsoft) and are the means of two determinations.
# h-GABAA α2β2γ1 [1] = biological target: T2, h-GABAA α2β2γ1 (Homo sapiens, UniProt P47869+Q8N1C3); experiment: Radioligand binding assay, [3H]RO7239181 competition, HEK293F membranes; parameters: signal peptide of human GABAA α5 subunit (Met1 to Ser31), replacing the α2 signal peptide (N); expressed in transfected cells; host or cells: HEK293F cells (ThermoFisher R79007), membranes
# T2 sequence (P47869 29-451): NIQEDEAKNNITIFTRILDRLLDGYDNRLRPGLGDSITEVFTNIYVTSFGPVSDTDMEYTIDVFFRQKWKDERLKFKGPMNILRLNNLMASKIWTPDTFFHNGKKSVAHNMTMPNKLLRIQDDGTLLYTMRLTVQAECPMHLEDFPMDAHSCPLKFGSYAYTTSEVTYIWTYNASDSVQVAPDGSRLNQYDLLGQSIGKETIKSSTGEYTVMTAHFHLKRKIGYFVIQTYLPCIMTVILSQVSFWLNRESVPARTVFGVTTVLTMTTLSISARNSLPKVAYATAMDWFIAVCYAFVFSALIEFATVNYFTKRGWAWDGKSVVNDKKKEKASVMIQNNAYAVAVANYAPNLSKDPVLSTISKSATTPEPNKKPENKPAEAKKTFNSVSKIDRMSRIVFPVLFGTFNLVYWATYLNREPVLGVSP
# T2 sequence (P47870 25-512 partner limits assumed): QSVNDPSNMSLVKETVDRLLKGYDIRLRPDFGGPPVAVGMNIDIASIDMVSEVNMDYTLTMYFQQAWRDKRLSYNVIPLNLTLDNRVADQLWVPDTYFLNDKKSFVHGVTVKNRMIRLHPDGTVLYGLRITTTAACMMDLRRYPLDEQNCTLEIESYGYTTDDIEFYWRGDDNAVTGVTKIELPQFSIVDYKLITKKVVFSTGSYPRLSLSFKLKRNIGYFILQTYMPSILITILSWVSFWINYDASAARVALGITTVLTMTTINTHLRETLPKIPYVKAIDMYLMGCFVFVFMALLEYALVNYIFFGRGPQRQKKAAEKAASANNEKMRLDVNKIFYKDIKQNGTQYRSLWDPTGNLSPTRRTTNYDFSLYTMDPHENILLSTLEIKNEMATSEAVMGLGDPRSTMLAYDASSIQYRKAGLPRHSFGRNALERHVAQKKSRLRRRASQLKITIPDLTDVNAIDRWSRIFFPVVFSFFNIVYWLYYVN
# T2 sequence (Q8N1C3 36-465): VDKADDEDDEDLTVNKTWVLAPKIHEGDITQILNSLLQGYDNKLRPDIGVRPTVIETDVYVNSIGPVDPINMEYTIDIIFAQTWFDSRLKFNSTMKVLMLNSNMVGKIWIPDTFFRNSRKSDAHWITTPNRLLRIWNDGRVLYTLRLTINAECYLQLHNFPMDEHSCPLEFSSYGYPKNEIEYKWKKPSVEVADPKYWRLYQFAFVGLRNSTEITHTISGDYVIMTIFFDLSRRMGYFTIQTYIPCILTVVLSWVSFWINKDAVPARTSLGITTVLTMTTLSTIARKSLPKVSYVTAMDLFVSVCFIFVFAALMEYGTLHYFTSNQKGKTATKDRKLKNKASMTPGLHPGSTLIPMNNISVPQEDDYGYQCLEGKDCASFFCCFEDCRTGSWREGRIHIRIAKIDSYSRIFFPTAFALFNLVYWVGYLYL
# Method: (§1) The affinity of compounds at GABAA γ1 subunit-containing receptors was measured by competition for [^3H]RO7239181 (67.3 Ci/mmol; Roche) binding to membranes from HEK293F cells (ThermoFisher R79007) expressing human (transiently transfected) receptors of composition […], α2β2γ1, α1β2γ1.
# (§2) Harvested pellets from HEK293F cells expressing the different GABAA receptor subtypes were resuspended in Mannitol Buffer pH 7.2-7.4 (Mannitol 0.29M, Triethylamine 10 mM, Acetic acid 10 mM, EDTA 1 mM plus protease inhibitors (20 tablets Complete, Roche Diagnostics Cat. No. 05 056 489 001 per liter)), washed two times and then resuspended at 1:10 to 1:15 dilution in the same buffer. Cell disruption was performed by stirring the suspension in a Parr vessel #4637 at 435 psi for 15 minutes, and then the suspensions were centrifuged at 1000×g for 15 minutes at 4° C. (Beckman Avanti J-HC; rotor JS-4.2). The supernatant (S1) was transferred in a 21 Schott flask and the pellet (P1) was resuspended with Mannitol Buffer up to 175 ml. The resuspended pellet was transferred into a 250 ml Corning centrifugal beaker and centrifuged at 1500×g for 10 minutes at 4° C. (Beckman Avanti J-HC; rotor JS-4.2). The supernatant (S1) was then transferred in the 21 Schott flask and the pellet was discarded. The supernatants (S1) were centrifuged in 500 ml Beckman polypropylene centrifugal beaker at 15′000×g for 30 minutes at 4° C. (Beckman Avanti J-20 XP; rotor JLA-10.500). The pellet (P2) was resuspended with Mannitol Buffer 1:1 and frozen at −80° C. The supernatant (S2) was centrifuged in 100 ml Beckman polypropylene centrifugal tubes at 48000×g for 50 minutes at 4° C. (Beckman Avanti J-20 XP; rotor JA-18). The supernatant (S3) was discarded and the pellet (P3) was resuspended with 1:1 Mannitol Buffer. The P2 and P3 protein concentration was determined with the BIORAD Standard assay method with bovine serum albumin as standard and measured on the NANO-Drop 1000. The membrane suspension was aliquots (500 μl per tube) and stored at −80° C. until required. Membrane homogenates were resuspended and polytronised (Polytron PT1200E Kinematica AG) in Potassium Phosphate 10 mM, KCl 100 mM binding buffer at pH 7.4 to a final assay concentration determined with a previous experiment.
# (§3) Assays were incubated to equilibrium for 1 hour at 4° C. and then, membranes were filtered onto unifilter (96-well white microplate with bonded GF/C filters preincubated 20-50 minutes in 0.3% Polyethylenimine) with a Filtermate 196 harvester (Packard BioScience) and washed 4 times with cold Potassium Phosphate 10 mM pH 7.4, KCl 100 mM binding buffer. After drying, filter-retained radioactivity was detected by liquid scintillation counting. Ki values were calculated using Excel-Fit (Microsoft) and are the means of two determinations.
# h-GABAA α1β2γ1 = biological target: T3, h-GABAA α1β2γ1 (Homo sapiens, UniProt P14867+Q8N1C3); experiment: as above
# T3 construct: expressed in transfected cells; host or cells: HEK293F cells (ThermoFisher R79007), membranes
# T3 sequence (P14867 28-456): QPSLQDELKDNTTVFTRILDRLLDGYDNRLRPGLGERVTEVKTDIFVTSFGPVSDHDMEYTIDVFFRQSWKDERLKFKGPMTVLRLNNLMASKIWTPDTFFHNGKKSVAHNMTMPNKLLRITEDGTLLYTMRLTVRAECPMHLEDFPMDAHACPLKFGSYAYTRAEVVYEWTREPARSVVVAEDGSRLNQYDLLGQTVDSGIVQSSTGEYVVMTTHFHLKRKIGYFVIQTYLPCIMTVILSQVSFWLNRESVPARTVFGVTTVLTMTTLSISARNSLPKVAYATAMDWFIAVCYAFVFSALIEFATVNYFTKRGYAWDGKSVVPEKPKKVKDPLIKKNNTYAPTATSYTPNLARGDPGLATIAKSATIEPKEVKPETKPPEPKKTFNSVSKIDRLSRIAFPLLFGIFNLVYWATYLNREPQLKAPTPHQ
# T3 sequence (P47870 25-512 partner limits assumed): T2 sequence (P47870 25-512 partner limits assumed)
# T3 sequence (Q8N1C3 36-465): T2 sequence (Q8N1C3 36-465)
# Method: as §1, §2, §3
# h-GABAA α2β2γ1 [2] = biological target: T2, h-GABAA α2β2γ1; experiment: Two-electrode voltage clamp electrophysiology in Xenopus oocytes, modulation of GABA EC20 current; assay type: cell-based; parameters: host or cells: Xenopus laevis oocytes, RNA micro-injection; details: α2β2γ1 GABAA receptor subtype expressing oocytes; reference PAMs
# Method: Xenopus laevis oocytes at maturation stages V-VJ were used for the expression of cloned mRNA encoding GABAA receptor subunits. Oocytes ready for RNA micro-injection were bought from Ecocyte, Castrop-Rauxel, Germany and stored in modified Barth's medium (composition in mM: NaCl 88, KCl 1, NaHCO3 2.4, HEPES 10, MgSO4 0.82, CaNO3 0.33, CaCl2 0.33, pH=7.5) at 20° C. until the experiment.
# Oocytes were plated in 96-well plates for microinjection using the Roboinject automated instrument (MultiChannelSystems, Reutlingen, Germany). Approximately 50 nL of an aqueous solution containing the RNA transcripts for the subunits of the desired GABAA receptor subtype was injected into each oocyte. […] Oocytes were kept in modified Barth's medium (composition in mM: NaCl 88, KCl 1, NaHCO3 […], HEPES 10, MgSO4 0.82, CaNO3 0.33, CaCl2 0.33, pH=7.5) at 20° C. until the experiment.
# Electrophysiological experiments were performed using the Roboocyte instrument (MultiChannelSystems, Reutlingen, Germany) on days 3 to 5 after the micro-injection of mRNA. During the experiment the oocytes were constantly superfused by a solution containing (in mM) NaCl 90, KCl 1, HEPES 5, MgCl2 1, CaCl2 1 (pH 7.4). Oocytes were impaled by two glass microelectrodes (resistance: 0.5-0.8 MΩ) which were filled with a solution containing KCl 1M+K-acetate 1.5 M and voltage-clamped to −80 mV. The recordings were performed at room temperature using the Roboocyte two-electrode voltage clamp system (Multichannelsystem). After an initial equilibration period of 1.5 min GABA was added for 1.5 min at a concentration evoking approximately 20% of a maximal current response (EC20). After another rest interval of 2.5 min GABA was again added evoking a response of similar amplitude and shape. […] Current traces were recorded at a digitization rate of 10 Hz during and shortly before and after the GABA application.
# Each compound and concentration was tested on at least 3 oocytes. Different oocytes were used for different compound concentrations.
# For the analysis, the digitized current traces of the first and second GABA response were superimposed and, if necessary, rescaled to equal maximal amplitudes. The ratio between the two responses during the time interval of test compound application was calculated point by point. The extremum of the resulting “ratio trace” was taken as the efficacy (“Fold increase”) of the compound expressed as “% modulation of GABA EC20” (100*(Fold increase−1)).
smiles,measurement,setting,value
"Cc1nnc2n1-c1ccc(Br)cc1C(c1c(F)cccc1F)=NC2 [RE-A, 8-bromo-6-(2,6-difluorophenyl)-1-methyl-4H-[1,2,4]triazolo[4,3-a][1,4]benzodiazepine, reference compound]",Ki,h-GABAA α1β3γ2,5.6 nM
same,γ2/γ1 Selectivity Ratio,h-GABAA α1β3γ2,0.18
same,LogSel,h-GABAA α1β3γ2,−0.74
same,Ki,h-GABAA α2β2γ1 [1],32.1 nM
"Cc1nnc2n1-c1ccc(Cl)cc1C(c1ccccc1)=NC2 [Alprazolam, reference compound]",Ki,h-GABAA α1β3γ2,19.6 nM
same,LogSel,h-GABAA α1β3γ2,−2.3
same,Ki,h-GABAA α2β2γ1 [1],3940 nM
same,Ki,h-GABAA α1β2γ1,5920 nM
"Cc1nnc2n1-c1ccc(Cl)cc1C(c1ccccc1Cl)=NC2 [Triazolam, reference compound]",LogSel,h-GABAA α1β3γ2,−1.5
same,potentiation of the GABA-induced current,h-GABAA α2β2γ1 [2],~60%
"Cc1nnc2n1-c1cccc(Cl)c1C(c1c(F)cccc1F)=NC2 [RE-G, 7-chloro-6-(2,6-difluorophenyl)-1-methyl-4H-[1,2,4]triazolo[4,3-a][1,4]benzodiazepine, reference compound]",Ki,h-GABAA α1β3γ2,302 nM
same,γ2/γ1 Selectivity Ratio,h-GABAA α1β3γ2,9.8
same,LogSel,h-GABAA α1β3γ2,0.99
same,Ki,h-GABAA α2β2γ1 [1],30.8 nM
"Cc1nnc2n1-c1ccc(C(F)(F)F)cc1C(c1c(F)cccc1F)=NC2 [RE-B, 6-(2,6-difluorophenyl)-1-methyl-8-(trifluoromethyl)-4H-[1,2,4]triazolo[4,3-a][1,4]benzodiazepine, reference compound]",Ki,h-GABAA α1β3γ2,15.6 nM
same,γ2/γ1 Selectivity Ratio,h-GABAA α1β3γ2,0.23
same,LogSel,h-GABAA α1β3γ2,−0.64
same,Ki,h-GABAA α2β2γ1 [1],68.4 nM
"Cc1nnc2n1-c1ccccc1C(c1c(F)cccc1F)=NC2 [RE-C, 6-(2,6-difluorophenyl)-1-methyl-4H-[1,2,4]triazolo[4,3-a][1,4]benzodiazepine, reference compound]",Ki,h-GABAA α1β3γ2,5.8 nM
same,γ2/γ1 Selectivity Ratio,h-GABAA α1β3γ2,0.0092
same,LogSel,h-GABAA α1β3γ2,−2.0
same,Ki,h-GABAA α2β2γ1 [1],627 nM
"Clc1ccc2c(c1)C(c1ccccc1)=NCc1nncn1-2 [Estazolam, reference compound]",Ki,h-GABAA α1β3γ2,28.4 nM
same,LogSel,h-GABAA α1β3γ2,−2.0
same,Ki,h-GABAA α2β2γ1 [1],3180 nM
